Values joined by “and” are separate entries in the source; they are usually repeats but may differ in a detail not shown here. Equal entries are not always repeated. Where two headings read alike, the source gives them in different places.
Columns and labels:
cells (nuclei count) = settings: for Relative cell count to DMSO controls, Average 1 μM / Relative cell count to DMSO controls, Average 5 μM / Relative cell count to DMSO controls, Average 10 μM / Relative cell count to DMSO controls, Average 25 μM / Relative cell count to DMSO controls, Average 50 μM: toxicity data, 100=DMSO control; for Relative cell count to DMSO controls, Average (for correlation analysis): average value over the 5 tested concentrations (1 to 50 uM); for Toxicity Data, Average, Mean (percentage relative to appropriate DMSO control): average of Exp 1 and Exp 2, n=4
SARS2 = type: cell-based, SARS-CoV-2; settings: for Percentage Infection Relative to Appropriate DMSO Control with Avg Background Subtraction: single well; for Percentage Inhibition Average 1 μM / Screening data (Relative infection to DMSO controls) Average 1 μM: SARS2, 1 μM; for Screening data (Relative infection to DMSO controls) Average 1 μM / Screening data (Relative infection to DMSO controls) Average 5 μM / Screening data (Relative infection to DMSO controls) Average 10 μM / Screening data (Relative infection to DMSO controls) Average 25 μM / Screening data (Relative infection to DMSO controls) Average 50 μM / Average (relative infection to DMSO over the 5 tested concentrations): 100=DMSO control; for Percentage Inhibition Average 5 μM / Screening data (Relative infection to DMSO controls) Average 5 μM: SARS2, 5 μM; for Percentage Inhibition Average 10 μM / Screening data (Relative infection to DMSO controls) Average 10 μM: SARS2, 10 μM; for Percentage Inhibition Average 25 μM / Screening data (Relative infection to DMSO controls) Average 25 μM: SARS2, 25 μM; for Percentage Inhibition Average 50 μM / Screening data (Relative infection to DMSO controls) Average 50 μM: SARS2, 50 μM; for Average (relative infection to DMSO over the 5 tested concentrations): SARS2, average over 1 to 50 uM; for Infection Data, Percentage Infection Relative to Appropriate DMSO Control with Avg Background Subtraction: duplicate wells, listed as SICLS61; for Infection Data, Average, Mean (Percentage Infection Relative to Appropriate DMSO Control): average of Exp 1 and Exp 2, n=4

`OC(COc1c(CNCCc2ccccc2F)cccc1N1CCNCC1)CN1CCCC1` (stereo not shown) [SILCS22] was tested, and the “Relative cell count to DMSO controls, Average 1 μM” value (cells (nuclei count)) was 126.41, the “Relative cell count to DMSO controls, Average 5 μM” value (cells (nuclei count)) was 125.64 and the “Relative cell count to DMSO controls, Average 10 μM” value (cells (nuclei count)) was 137.18. For the same compound, the “Relative cell count to DMSO controls, Average 25 μM” value (cells (nuclei count)) was 131.85, the “Relative cell count to DMSO controls, Average 50 μM” value (cells (nuclei count)) was 68.81 and the “Toxicity Data, Average, Mean” value (cells (nuclei count); Average of Exp 1-3, n 9, 1 uM) was 126.41%. For the same compound, the “Toxicity Data, Average, Mean” value (cells (nuclei count); Average of Exp 1-3, n 9, 5 uM) was 125.64%, the “Toxicity Data, Average, Mean” value (cells (nuclei count); Average of Exp 1-3, n 9, 10 uM) was 137.18% and the “Toxicity Data, Average, Mean” value (cells (nuclei count); Average of Exp 1-3, n 9, 25 uM) was 131.85%. For the same compound, the “Toxicity Data, Average, Mean” value (cells (nuclei count); Average of Exp 1-3, n 9, 50 uM) was 68.81%, the “Relative cell count to DMSO controls, Average (for correlation analysis)” value (cells (nuclei count)) was 117.98 and the “SARS2 antiviral activity” value (SARS2) was “activity approaching that of UMB18”. For the same compound, the “Infection Data, Average, Mean” value (SARS2; Average of Exp 1-3, n 9, 1 uM) was 72.38%, the “Infection Data, Average, Mean” value (SARS2; Average of Exp 1-3, n 9, 5 uM) was 70.31% and the “Infection Data, Average, Mean” value (SARS2; Average of Exp 1-3, n 9, 10 uM) was 53.13%. The “Infection Data, Average, Mean” value (SARS2; Average of Exp 1-3, n 9, 25 uM) was 6.37%, the “Infection Data, Average, Mean” value (SARS2; Average of Exp 1-3, n 9, 50 uM) was 2.68% and the “Percentage Infection Relative to Appropriate DMSO Control with Avg Background Subtraction” value (SARS2; Exp 1 (SMW475), 1 uM) was 68.46% and 64.64% and 77.37%. For the same compound, the “Percentage Infection Relative to Appropriate DMSO Control with Avg Background Subtraction” value (SARS2; Exp 1 (SMW475), 5 uM) was 32.75% and 46.98% and 35.47%, the “Percentage Infection Relative to Appropriate DMSO Control with Avg Background Subtraction” value (SARS2; Exp 1 (SMW475), 10 uM) was 15.62% and 28.80% and 29.55% and the “Percentage Infection Relative to Appropriate DMSO Control with Avg Background Subtraction” value (SARS2; Exp 1 (SMW475), 25 uM) was 2.49% and 6.38% and 4.75%. For the same compound, the “Percentage Infection Relative to Appropriate DMSO Control with Avg Background Subtraction” value (SARS2; Exp 1 (SMW475), 50 uM) was 0.02% and 3.92% and 4.65%, the “Percentage Infection Relative to Appropriate DMSO Control with Avg Background Subtraction” value (SARS2; Exp 2 (SMW477), 1 uM) was 76.88% and 75.65% and 76.95% and the “Percentage Infection Relative to Appropriate DMSO Control with Avg Background Subtraction” value (SARS2; Exp 2 (SMW477), 5 uM) was 93.66% and 92.49% and 88.62%. The “Percentage Infection Relative to Appropriate DMSO Control with Avg Background Subtraction” value (SARS2; Exp 2 (SMW477), 10 uM) was 68.54% and 46.53% and 47.36%, the “Percentage Infection Relative to Appropriate DMSO Control with Avg Background Subtraction” value (SARS2; Exp 2 (SMW477), 25 uM) was 5.13% and 4.50% and 4.04% and the “Percentage Infection Relative to Appropriate DMSO Control with Avg Background Subtraction” value (SARS2; Exp 2 (SMW477), 50 uM) was 3.65% and 0.99% and 1.90%. The “Percentage Infection Relative to Appropriate DMSO Control with Avg Background Subtraction” value (SARS2; Exp 3 (SMW478), 1 uM) was 62.06% and 83.81% and 65.64%, the “Percentage Infection Relative to Appropriate DMSO Control with Avg Background Subtraction” value (SARS2; Exp 3 (SMW478), 5 uM) was 69.69% and 88.68% and 84.47% and the “Percentage Infection Relative to Appropriate DMSO Control with Avg Background Subtraction” value (SARS2; Exp 3 (SMW478), 10 uM) was 92.75% and 69.87% and 79.13%. The “Percentage Infection Relative to Appropriate DMSO Control with Avg Background Subtraction” value (SARS2; Exp 3 (SMW478), 25 uM) was 8.14% and 10.91% and 10.99%, the “Percentage Infection Relative to Appropriate DMSO Control with Avg Background Subtraction” value (SARS2; Exp 3 (SMW478), 50 uM) was 1.60% and 3.82% and 3.54% and the “Percentage Inhibition Average 1 μM” value (SARS2) was 27.62%. The “Screening data (Relative infection to DMSO controls) Average 1 μM” value (SARS2) was 72.38, the “Percentage Inhibition Average 5 μM” value (SARS2) was 29.69% and the “Screening data (Relative infection to DMSO controls) Average 5 μM” value (SARS2) was 70.31. The “Percentage Inhibition Average 10 μM” value (SARS2) was 46.87%, the “Screening data (Relative infection to DMSO controls) Average 10 μM” value (SARS2) was 53.13 and the “Percentage Inhibition Average 25 μM” value (SARS2) was 93.63%. The “Screening data (Relative infection to DMSO controls) Average 25 μM” value (SARS2) was 6.37, the “Percentage Inhibition Average 50 μM” value (SARS2) was 97.32% and the “Screening data (Relative infection to DMSO controls) Average 50 μM” value (SARS2) was 2.68. The “Average (relative infection to DMSO over the 5 tested concentrations)” value (SARS2) was 40.97.

For `CC1=C(C(=O)NC2CCCCCC2)C(c2cccs2)NC(=O)N1` (stereo not shown) [SILCS61], the “Toxicity Data, Average, Mean (percentage relative to appropriate DMSO control)” value (cells (nuclei count); 1 uM) was 106.46%, the “Relative cell count to DMSO controls, Average 1 μM” value (cells (nuclei count)) was 106.46 and the “Toxicity Data, Average, Mean (percentage relative to appropriate DMSO control)” value (cells (nuclei count); 5 uM) was 110.71%. The “Relative cell count to DMSO controls, Average 5 μM” value (cells (nuclei count)) was 110.71, the “Toxicity Data, Average, Mean (percentage relative to appropriate DMSO control)” value (cells (nuclei count); 10 uM) was 107.86% and the “Relative cell count to DMSO controls, Average 10 μM” value (cells (nuclei count)) was 107.86. For the same compound, the “Toxicity Data, Average, Mean (percentage relative to appropriate DMSO control)” value (cells (nuclei count); 25 uM) was 109.52%, the “Relative cell count to DMSO controls, Average 25 μM” value (cells (nuclei count)) was 109.52 and the “Toxicity Data, Average, Mean (percentage relative to appropriate DMSO control)” value (cells (nuclei count); 50 uM) was 104.46%. For the same compound, the “Relative cell count to DMSO controls, Average 50 μM” value (cells (nuclei count)) was 104.46, the “Relative cell count to DMSO controls, Average (for correlation analysis)” value (cells (nuclei count)) was 107.80 and the “Infection Data, Percentage Infection Relative to Appropriate DMSO Control with Avg Background Subtraction” value (SARS2; 1 uM, Exp 1 (SMW506)) was 73.61% and 82.18%. For the same compound, the “Infection Data, Percentage Infection Relative to Appropriate DMSO Control with Avg Background Subtraction” value (SARS2; 1 uM, Exp 2 (SMW492), SILCS 61-66 and 67-72 plates) was 57.97% and 58.62%, the “Infection Data, Average, Mean (Percentage Infection Relative to Appropriate DMSO Control)” value (SARS2; 1 uM) was 68.10% and the “Infection Data, Percentage Infection Relative to Appropriate DMSO Control with Avg Background Subtraction” value (SARS2; 5 uM, Exp 1 (SMW506)) was 41.43% and 63.29%. For the same compound, the “Infection Data, Percentage Infection Relative to Appropriate DMSO Control with Avg Background Subtraction” value (SARS2; 5 uM, Exp 2 (SMW492), SILCS 61-66 and 67-72 plates) was 38.94% and 52.11%, the “Infection Data, Average, Mean (Percentage Infection Relative to Appropriate DMSO Control)” value (SARS2; 5 uM) was 48.94% and the “Infection Data, Percentage Infection Relative to Appropriate DMSO Control with Avg Background Subtraction” value (SARS2; 10 uM, Exp 1 (SMW506)) was 73.81% and 87.85%. For the same compound, the “Infection Data, Percentage Infection Relative to Appropriate DMSO Control with Avg Background Subtraction” value (SARS2; 10 uM, Exp 2 (SMW492), SILCS 61-66 and 67-72 plates) was 33.45% and 32.58%, the “Infection Data, Average, Mean (Percentage Infection Relative to Appropriate DMSO Control)” value (SARS2; 10 uM) was 56.92% and the “Infection Data, Percentage Infection Relative to Appropriate DMSO Control with Avg Background Subtraction” value (SARS2; 25 uM, Exp 1 (SMW506)) was 51.60% and 90.77%. The “Infection Data, Average, Mean (Percentage Infection Relative to Appropriate DMSO Control)” value (SARS2; 25 uM) was 43.41%, the “Infection Data, Percentage Infection Relative to Appropriate DMSO Control with Avg Background Subtraction” value (SARS2; 50 uM, Exp 1 (SMW506)) was −4.48% and −4.80% and the “Infection Data, Percentage Infection Relative to Appropriate DMSO Control with Avg Background Subtraction” value (SARS2; 50 uM, Exp 2 (SMW492), SILCS 61-66 and 67-72 plates) was 11.69% and 10.06%. For the same compound, the “Infection Data, Average, Mean (Percentage Infection Relative to Appropriate DMSO Control)” value (SARS2; 50 uM) was 3.12%, the “Percentage Inhibition Average 1 μM” value (SARS2) was 31.90% and the “Screening data (Relative infection to DMSO controls) Average 1 μM” value (SARS2) was 68.10. For the same compound, the “Percentage Inhibition Average 5 μM” value (SARS2) was 51.06%, the “Screening data (Relative infection to DMSO controls) Average 5 μM” value (SARS2) was 48.94 and the “Percentage Inhibition Average 10 μM” value (SARS2) was 43.08%. For the same compound, the “Screening data (Relative infection to DMSO controls) Average 10 μM” value (SARS2) was 56.92, the “Percentage Inhibition Average 25 μM” value (SARS2) was 56.59% and the “Screening data (Relative infection to DMSO controls) Average 25 μM” value (SARS2) was 43.41. The “Percentage Inhibition Average 50 μM” value (SARS2) was 96.88%, the “Screening data (Relative infection to DMSO controls) Average 50 μM” value (SARS2) was 3.12 and the “Average (relative infection to DMSO over the 5 tested concentrations)” value (SARS2) was 44.10.
